Blank lines part the entries; values can stand above or below the molecule they belong to.
Assay: solvent given as SMILES

Compound: Cc1ccc2c(c1)C1(c3ccccc3-c3ccccc31)c1cc(C)ccc1N2c1ccc(-c2ncccn2)cc1
absorption maximum (in Cc1ccccc1): 380 nm

absorption maximum (in O): 277 nm
Compound: [NH3+]C(Cc1c[nH]c2ccccc12)C(=O)[O-] (stereo unspecified)

absorption maximum (in C1CCOC1): 332 nm
Compound: N#Cc1c(N2CCCCC2)cc(-c2ccc(-c3ccccc3)cc2)c2c1CCc1ccccc1-2

absorption maximum (in CS(C)=O): 480 nm | absorption maximum (in ClCCl): 447 nm
Compound: O=c1oc2ccccc2c2c1c(=O)oc1c3ccccc3cc(O)c12

absorption maximum (in C1CCOC1): 687 nm
Compound: O=C1/C(=C2\Nc3cc4ccc5cccc6ccc(c3C2=O)c4c56)Nc2cc3ccc4cccc5ccc(c21)c3c45

absorption maximum (in CCO): 381 nm
Compound: Cc1c(COC(=O)c2ccccc2)n2c(OCC(=O)c3ccccc3)c(C)c(=O)n2c1=O

Compound: N#C/C(=N/Nc1ccc(C#N)cc1)c1nc(-c2ccccc2)cs1
absorption maximum (in CC#N): 396 nm | absorption maximum (in CCO): 398 nm | absorption maximum (in CN(C)C=O): 477 nm | absorption maximum (in Cc1ccccc1): 401 nm | absorption maximum (in ClCCl): 399 nm

absorption maximum (in ClCCl): 383 nm
Compound: CCCCc1ccc(C#Cc2ccc3nc4ccc(C#Cc5ccc(CCCC)cc5)cn4c(=O)c3c2)cc1

absorption maximum (in ClCCl): 387 nm
Compound: O=C1c2ccccc2C2=Nc3ccc4ccccc4[n+]3[B-](F)(F)N12

absorption maximum (in C1CCOC1): 664 nm | absorption maximum (in CS(C)=O): 666 nm | absorption maximum (in ClCCl): 664 nm
Compound: COCCOCCOCCOc1ccc(/C=C/C2=[N+]3C(=C(c4cc(OC)cc(OC)c4)c4c(C)c(I)c(/C=C/c5ccc(OCCOCCOCCOC)cc5)n4[B-]3(F)F)C(C)=C2I)cc1

Compound: Cc1ccc(OCc2cc(=O)oc3c2ccc2ccccc23)cc1
absorption maximum (in C1CCOC1): 352 nm | absorption maximum (in C1COCCO1): 352 nm | absorption maximum (in CCOC(C)=O): 351 nm | absorption maximum (in CO): 352 nm | absorption maximum (in Cc1ccccc1): 354 nm | absorption maximum (in ClCCl): 354 nm

Compound: O=Cc1ccc(N(c2ccc(C=O)cc2)c2ccc(-c3ccc4c(c3)C(=O)c3ccccc3C4=O)cc2)cc1
absorption maximum (in C1CCOC1): 374 nm | absorption maximum (in CCCCCC): 368 nm | absorption maximum (in CCOC(C)=O): 371 nm | absorption maximum (in CCOCC): 369 nm | absorption maximum (in Cc1ccccc1): 376 nm | absorption maximum (in ClC(Cl)(Cl)Cl): 376 nm | absorption maximum (in ClCCl): 379 nm

Compound: CCN(CC)c1ccc([N+]2=Cc3ccc4c5c(ccc4c3O[B-]2(c2ccccc2)c2ccccc2)C=[N+](c2ccc([N+](=O)[O-])cc2)[B-](c2ccccc2)(c2ccccc2)O5)cc1
absorption maximum (in C1CCOC1): 547 nm | absorption maximum (in CC#N): 539 nm | absorption maximum (in CC(C)=O): 541 nm | absorption maximum (in Cc1ccccc1): 555 nm | absorption maximum (in ClCCl): 559 nm

Compound: c1ccc2c(c1)Oc1ccccc1N2c1ccc2c(c1)c1ccccc1n1ccnc21
absorption maximum (in Cc1ccccc1): 376 nm

absorption maximum (in ClCCl): 445 nm
Compound: COc1ccc2c(c1)CCC1=C(C#Cc3ccc(Cl)cc3)O[B-](F)(F)[O+]=C12

absorption maximum (in CC#N): 320 nm
Compound: C=CC(=O)Oc1ccc2cc(C=C)c(=O)oc2c1

absorption maximum (in CC#N): 352 nm
Compound: CC(=O)c1cc2c(cc1F)NC(C)(C)CC2=O

absorption maximum (in O): 296 nm
Compound: CC(C)(C)c1cccc2c(O)cccc12

absorption maximum (in ClCCl): 414 nm
Compound: CC(C)(C)c1ccc(C#Cc2cc3c(C#Cc4ccc(C(C)(C)C)cc4)c(C#Cc4ccc(C(C)(C)C)cc4)c4cc(C#Cc5ccc(C(C)(C)C)cc5)cc5c(C#Cc6ccc(C(C)(C)C)cc6)c(C#Cc6ccc(C(C)(C)C)cc6)c(c2)c3c45)cc1

absorption maximum (in CCO): 473 nm
Compound: CN1c2cc3nc4cc(Br)c(Br)cc4nc3cc2N(C)C1(C)C

absorption maximum (in ClC(Cl)Cl): 666 nm
Compound: CCOC(=O)/C=C/C1=C(c2ccc(C)cc2)C2=Nc3c(-c4ccc(C)cc4)c(Br)c(-c4ccc(C)cc4)n3[B-](F)(F)[N+]2=C1c1ccc(C)cc1

absorption maximum (in C1CCOC1): 372 nm
Compound: COC(=O)c1ccc(/C=C/C(F)(F)F)c(N)c1

absorption maximum (in C1CCOC1): 353 nm | absorption maximum (in C1COCCO1): 353 nm | absorption maximum (in CC#N): 350 nm | absorption maximum (in CCOC(C)=O): 356 nm | absorption maximum (in CN(C)C=O): 341 nm | absorption maximum (in ClC(Cl)Cl): 357 nm
Compound: O=C(O)c1ccccc1Nc1ccccc1

absorption maximum (in ClCCl): 412 nm
Compound: CCCCCCc1cc2c(s1)-c1cc3c(cc1NB2c1ccccc1)-c1sc(CCCCCC)cc1B(c1ccccc1)N3

absorption maximum (in CO): 540 nm
Compound: CCOC(=O)CCCCCn1c2ccc(F)cc2c(=O)c2cc3c(cc21)c(=O)c1cc(F)ccc1n3CCCCCC(=O)OCC

absorption maximum (in ClCCl): 559 nm
Compound: COc1ccc(C#Cc2c3ccccc3c(C#Cc3ccc(OC)cc3)c3cc4ccccc4cc23)cc1

absorption maximum (in ClCCl): 432 nm
Compound: COc1ccc(N(c2ccccc2)c2ccc3ccc4c(N(c5ccccc5)c5ccc(OC)cc5)ccc5ccc2c3c54)cc1

absorption maximum (in CN(C)C=O): 361 nm | absorption maximum (in O): 338 nm
Compound: CC[N+]1(CC)CN2C(C)=CC(C)=C(C(=O)[O-])C2=N1

Compound: Cn1c(=O)c(/N=N/c2ccc(/N=N/c3ccc(S(=O)(=O)O)cc3)cc2)c(O)c2ccccc21
absorption maximum (in C1CCOC1): 454 nm | absorption maximum (in CC(C)=O): 453 nm | absorption maximum (in CCOC(C)=O): 452 nm | absorption maximum (in CO): 452 nm | absorption maximum (in CS(C)=O): 460 nm | absorption maximum (in Cc1ccccc1): 458 nm | absorption maximum (in ClCCl): 457 nm | absorption maximum (in O): 447 nm

absorption maximum (in CC#N): 340 nm
Compound: N#Cc1nn(-c2ccc(F)cc2)nc1N1CCCC1

Compound: c1ccc(Cn2c3sccc3c3c4nsnc4c4c5ccsc5n(Cc5ccccc5)c4c32)cc1
absorption maximum (in Cc1ccccc1): 424 nm | absorption maximum (in ClCCl): 424 nm

absorption maximum (in CS(C)=O): 388 nm | absorption maximum (in ClCCl): 385 nm
Compound: O=c1oc2ccccc2c2c1c(=O)oc1cc(O)cc(O)c12

absorption maximum (in ClC(Cl)Cl): 378 nm
Compound: CCCCCCN1C(=O)c2cccc3c(-c4cc5ccccc5s4)ccc(c23)C1=O

Compound: CCN(CC)c1ccc2cc(-c3csc(N)c3C#N)c(=O)oc2c1
absorption maximum (in C1CCOC1): 403 nm | absorption maximum (in CO): 406 nm | absorption maximum (in CS(C)=O): 406 nm | absorption maximum (in Cc1ccccc1): 403 nm | absorption maximum (in ClCCl): 407 nm

absorption maximum (in O): 444 nm
Compound: CC[n+]1c(-c2ccccc2)c2cc(N)ccc2c2ccc(NC(N)=[NH2+])cc21

absorption maximum (in C1CCOC1): 400 nm
Compound: COC(=O)c1cc2c(cc3ccc4cccc5ccc2c3c45)[nH]1

absorption maximum (in C1CCOC1): 352 nm
Compound: c1ccc(-n2c(-c3ccccc3-n3c4ccccc4c4ccccc43)nc3ccccc32)cc1

Compound: CC(C)(C)c1ccc2c(c1)c1cc(C(C)(C)C)ccc1n2-c1cc(C(=O)c2ccccn2)cc(-n2c3ccc(C(C)(C)C)cc3c3cc(C(C)(C)C)ccc32)c1
absorption maximum (in Cc1ccccc1): 394 nm

absorption maximum (in C1CCOC1): 458.09 nm | absorption maximum (in C1COCCO1): 459.98 nm | absorption maximum (in CC#N): 459.98 nm | absorption maximum (in CC(C)O): 454.96 nm | absorption maximum (in CCCCCC): 452.08 nm | absorption maximum (in CN(C)C=O): 458.93 nm | absorption maximum (in CO): 457.04 nm | absorption maximum (in ClC(Cl)Cl): 461.04 nm | absorption maximum (in c1ccccc1): 459.98 nm
Compound: CC1(C)CCc2c(c3ccccc3c3nc4c5c(c6ccccc6c4nc23)OC(C)(C)CC5)O1

Compound: CN(C)c1ccc(/C=C/c2ccc(C#N)cc2)cc1
absorption maximum (in C1CCOC1): 385 nm | absorption maximum (in CC#N): 383 nm | absorption maximum (in CCCC#N): 386 nm | absorption maximum (in CCCCCC): 378 nm | absorption maximum (in CCCCOCCCC): 380 nm | absorption maximum (in CCO): 383 nm | absorption maximum (in CCOCC): 380 nm

absorption maximum (in C1CCOC1): 369 nm | absorption maximum (in CC#N): 369 nm | absorption maximum (in CS(C)=O): 380 nm | absorption maximum (in ClCCl): 365 nm
Compound: CN(C)c1ccc(/C=C/c2cccnn2)cc1

absorption maximum (in CC#N): 619 nm | absorption maximum (in CO): 617 nm | absorption maximum (in ClCCl): 637 nm | absorption maximum (in O): 608 nm
Compound: O=C(O)CC[N+]1=c2cc3c(cc2CCC1)=Cc1c(c2cc4c5c(c2oc1=O)CCCN5CCC4)O3

Compound: COc1ccccc1-c1nc2c3ccccc3c3ccccc3c2n1-c1ccc(C)cc1
absorption maximum (in Cc1ccccc1): 359 nm

Compound: F[B-]1(F)OC(c2ccccc2)=Cc2cc(Cl)nc[n+]21
absorption maximum (in C1CCOC1): 374 nm | absorption maximum (in CC#N): 371 nm | absorption maximum (in CCCCCC): 373 nm | absorption maximum (in Cc1ccccc1): 377 nm | absorption maximum (in ClC(Cl)Cl): 376 nm | absorption maximum (in ClCCl): 375 nm

absorption maximum (in C1CCCCC1): 293.94 nm
Compound: Cc1cccc2ccccc12

absorption maximum (in CCO): 403 nm
Compound: CN(C)c1ccc2c(C(=O)NCc3ccccc3)cc(C(=O)[O-])nc2c1

absorption maximum (in O): 506 nm
Compound: O=C([O-])COc1cc(NC(=O)c2ccc(-c3c4cc(Cl)c(=O)cc-4oc4cc(O)c(Cl)cc34)c(C(=O)[O-])c2)ccc1N(CC(=O)[O-])CC(=O)[O-]

absorption maximum (in C1COCCO1): 400 nm
Compound: N#Cc1ccc(/C=C2\C=C(c3ccccc3)OC2=O)cc1

absorption maximum (in ClCCl): 361 nm
Compound: COc1ccc(N(c2ccc(OC)cc2)c2ccc(-c3ccc4nc5ccccc5c(=O)n4c3)cc2)cc1

Compound: c1cc2c3c(c1)-c1ccc4c5c(ccc(c15)B3c1ccc3c5c(ccc-2c15)CC3)CC4
absorption maximum (in Cc1ccccc1): 495 nm

absorption maximum (in ClCCl): 324 nm
Compound: Cc1ccc(-c2cnc3ccc4ccccc4n23)cc1

Compound: CC(=O)[B-]1(C(C)=O)OC(c2ccc3ccccc3c2)=CC(c2ccc3ccccc3c2)=[O+]1
absorption maximum (in CC#N): 420 nm | absorption maximum (in ClC(Cl)(Cl)Cl): 415 nm

absorption maximum (in ClCCl): 436 nm
Compound: N#CC(C#N)=Cc1ccc2c(c1)[nH]c1c3ccccc3ccc21

Compound: c1ccc(-c2nc(-c3ccc(N4c5ccccc5C(c5ccccc5)(c5ccccc5)c5ccccc54)cc3)cc(-c3ccccn3)n2)cc1
absorption maximum (in Cc1ccccc1): 371.33 nm

Compound: CCC1=C(C)C(=O)n2c1cc1c(C)cc(C)n1c2=O
absorption maximum (in CC#N): 409 nm | absorption maximum (in CC(C)=O): 412 nm | absorption maximum (in CO): 420 nm | absorption maximum (in CS(C)=O): 420 nm | absorption maximum (in ClC(Cl)Cl): 420 nm | absorption maximum (in c1ccccc1): 423 nm

absorption maximum (in CO): 768 nm
Compound: CC1(C)C(/C=C/C2=C(Oc3ccc(CCN=C=S)cc3Br)C(=C/C=C3/N(CCCS(=O)(=O)[O-])c4ccccc4C3(C)C)/CCC2)=[N+](CCCS(=O)(=O)[O-])c2ccccc21

absorption maximum (in ClCCl): 370 nm
Compound: COc1ccc(/C=C/c2cc(/C=C/c3ccc(OC)cc3)nc(/C=C/c3ccc(N(C)C)cc3)n2)cc1

absorption maximum (in CCO): 542 nm | absorption maximum (in O): 544 nm
Compound: CN(C)c1ccc2c(-c3cc(N)ccc3C(=O)[O-])c3ccc(=[N+](C)C)cc-3oc2c1

absorption maximum (in CCO): 636 nm | absorption maximum (in CO): 633 nm | absorption maximum (in CS(C)=O): 644 nm | absorption maximum (in O): 631 nm
Compound: CN1/C(=C/C=C(/C=C/C2=[N+](C)c3ccccc3C2(C)C)c2cc(F)cc(F)c2)C(C)(C)c2ccccc21

absorption maximum (in C1CCCCC1): 424 nm
Compound: Cc1cc(C)c(B2c3cc(C(C)(C)C)cc4ccc5c6ccccc6c6cc(C(C)(C)C)cc2c6c5c34)c(C)c1

From the Deep4Chem optical property database
